Entries after “also recorded” stand apart in the source; their conditions may differ.
Tests used:
[1] = target: T1, S2R (Rattus norvegicus, UniProt Q5U3Y7); assay: S2R radioligand binding assay, [3H]DTG with (+)-pentazocine as S1R masking agent, liver homogenates; design: species or system male Sprague-Dawley rats; conditions: read-out: Ki (nM) ± SD S2R
T1 construct: from tissue; host or cells: rat liver homogenate (male Sprague-Dawley)
T1 sequence (Q5U3Y7 1-176): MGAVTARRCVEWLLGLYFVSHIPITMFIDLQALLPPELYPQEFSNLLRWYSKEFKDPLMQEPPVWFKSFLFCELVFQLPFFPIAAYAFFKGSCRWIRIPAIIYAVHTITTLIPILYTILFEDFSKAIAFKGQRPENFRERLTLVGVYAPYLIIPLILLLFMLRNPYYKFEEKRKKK
Description: (§1) The Ki-values were calculated with the program GraphPad Prism 7.0 (GraphPad Software, San Diego, California). The Ki-values are given as mean value ± SD from at least two independent experiments performed in duplicate.

[2] = target: T2, S1R (Rattus norvegicus, UniProt Q9R0C9); assay: S1R radioligand binding assay, [3H](+)-pentazocine, liver homogenates; design: from tissue; host or cells: rat liver homogenate (male Sprague-Dawley); species or system male Sprague-Dawley rats; conditions: for KiS2R/KiS1R (preference for S1R over S2R): ratio of S2R Ki to S1R Ki; for Ki: read-out: Ki (nM) ± SD S1R
Description: as §1

[3] = test system: capsaicin-induced mechanical hypersensitivity in mice; assay: Capsaicin-induced secondary mechanical hypersensitivity (allodynia); type: in vivo, female CD1 mice; conditions: for S1R functional profile in vivo: concluded from the capsaicin model; for antiallodynic effect, compound administered alone / dose reaching full reversal of mechanical hypersensitivity (maximum antiallodynic effect): s.c.; for antiallodynic effect, compound administered alone: 30 min before capsaicin 1 μg i.pl., paw withdrawal latency at 0.5 g force, 4b 5–20 mg/kg, PRE-084 32 mg/kg; for antiallodynic effect when associated with the S1R agonist PRE-084: PRE-084 32 mg/kg s.c. 5 min before, BD-1063 40 mg/kg, 8f and 5b 20 mg/kg s.c.; for dose reaching full reversal of mechanical hypersensitivity (maximum antiallodynic effect): capsaicin 1 μg i.pl., mice
Description: We used capsaicin-induced secondary hypersensitivity (allodynia) as a pain model. It has been described that the increase in mechanical sensitivity in the area surrounding capsaicin injection (area of secondary allodynia) is due to central sensitization, which is a relevant process for chronic pain development and maintenance.[48]
Experiments were performed in female CD1 mice (Charles River, Barcelona, Spain) weighing 25–30 g. The mice were acclimated in our animal facilities for at least 1 week before testing and housed in a room under controlled environmental conditions: 12/12 h day/night cycle, air replacement every 20 min, and regulated temperature (22 ± 2 °C). The animals were fed a standard laboratory diet (Harlan Teklad Research Diet, Madison, Wisconsin) and tap water ad libitum until the beginning of the experiments. Testing was always performed from 9.00 to 15.00 h and randomly throughout the oestrous cycle. Animal care was made in accordance with institutional (Research Ethics Committee of the University of Granada, Spain), regional (Junta de Andalucía, Spain), and international standards (European Communities Council Directive 2010/63).
As selective S1R drugs, we used the S1R antagonist BD-1063 (1-[2-(3,4-dichlorophenyl)ethyl]-4-methylpiperazine dihydrochloride) and the S1R agonist PRE-084 (2-(4-morpholinethyl)-1-phenyl cyclohexane carboxylate hydrochloride) (both provided by Tocris Cookson, Bristol, U.K.).[57] The standard or experimental compounds were dissolved in 5% DMSO (Merck KGaA, Darmstadt, Germany) in physiological sterile saline (0.9% NaCl). They were prepared immediately before the start of the experiments and injected s.c. in a volume of 5 mL/kg into the interscapular area.
To test for the antiallodynic effects of BD-1063, 4b, 5b, or 8f, they were administered 30 min before the injection of capsaicin, used as the chemical algogen. To test the effects of PRE-084 or 4b on the antiallodynia induced by BD-1063, 8f, or 5b, the former were administered 5 min before the latter. When the effect of the association of several drugs was assessed, each injection was performed in different areas of the interscapular zone to avoid mixture of the drug solutions and any physicochemical interaction between them.
Capsaicin (Sigma-Aldrich Química S.A.) was dissolved in 1% DMSO in physiological sterile saline to a concentration of 0.05 μg/μL (i.e., 1 μg per mouse). Capsaicin solution was injected intraplantarly (i.pl.) into the right hind paw proximate to the heel, in a volume of 20 μL using a 1710 TLL Hamilton microsyringe (Teknokroma, Barcelona, Spain) with a 30^1/2-gauge needle. Control animals were injected with the same volume of the vehicle of capsaicin.
Animals were placed for 2 h in individual black-walled test compartments, which were situated on an elevated mesh-bottom platform with a 0.5-cm^2 grid to provide access to the ventral surface of the hind paws. Punctate mechanical stimulation was applied with a Dynamic Plantar Aesthesiometer (Ugo Basile, Varese, Italy) 15 min after capsaicin or saline administration (i.e., 45 min after the injection of the experimental drug). Briefly, a nonflexible filament (0.5 mm diameter) was electronically driven into the ventral side of the right hind paw (which was previously injected with capsaicin or vehicle) at least 5 mm away from the site of the injection toward the fingers. The intensity of the stimulation was fixed at 0.5 g force, as described previously.[49],[50] When a paw withdrawal response occurred, the stimulus was automatically terminated and the response latency was recorded. The filament was applied three times at intervals of 0.5 min, and the mean value of the three trials was considered the withdrawal latency time of the animal.

[4] = target: T2, S1R; assay: S1R functional assay: S1R radioligand binding with or without phenytoin; design: incubating 200 μL of membrane preparation with 50 μL of 20 nM; from tissue; host or cells: membrane preparation; conditions: for ratio Ki (nM) control/+ phenythoin: >1 agonist, ≤1 antagonist; for S1R functional profile in vitro (phenytoin assay): concluded from Ki ratio control/with phenytoin
Description: In order to further asses the functional profile of compounds 4b, 5b, and 8f, the well-established phenytoin-based functional assay was carried out.[52] Previous studies have shown that phenytoin, a low-potent allosteric modulator for the S1R, differentially modulates the affinity of S1R ligands depending on their agonist versus antagonist functionality.
The functionality of compounds 4b, 5b, and 8f on S1R was determined using the same radiolabeled binding assay for the S1R in the presence of phenytoin. […] The final volume was 0.5 mL.

[5] = with phenytoin (20 μL of 25 mM in 0.5 mL), 120 min at 37 °C, read-out: Ki (nM) + phenythoin
[6] = without phenytoin, read-out: Ki (nM) control

T2 sequence (Q9R0C9 whole entry): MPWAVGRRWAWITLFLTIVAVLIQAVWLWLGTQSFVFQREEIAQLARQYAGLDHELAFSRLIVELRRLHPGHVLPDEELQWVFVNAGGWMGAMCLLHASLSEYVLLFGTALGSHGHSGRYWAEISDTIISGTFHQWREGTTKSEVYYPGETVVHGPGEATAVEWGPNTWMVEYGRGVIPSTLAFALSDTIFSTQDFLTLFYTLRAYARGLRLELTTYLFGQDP

## c1ccc(CCN2CC3(CCN(c4ccccc4)CC3)C2)cc1 [4a, 2-Phenethyl-7-phenyl-2,7-diazaspiro[3.5]nonane]
[1]
  Ki: 77 ± 12 nM
[2]
  KiS2R/KiS1R (preference for S1R over S2R): 2.8
  Ki: 28 ± 2 nM

## c1ccc(CCN2CC3(CCN(Cc4ccccc4)CC3)C2)cc1 [4b, 7-Benzyl-2-phenethyl-2,7-diazaspiro[3.5]nonane]
[1]
  Ki: 27 ± 5.3 nM
[3]; 4b 2.5–10 mg/kg s.c. associated with BD-1063 40 mg/kg s.c.
  effect on the antiallodynic effect of BD-1063: fully reverse the antiallodynic effect of BD-1063
[3]
  S1R functional profile in vivo: S1R agonistic in vivo effect
  antiallodynic effect, compound administered alone: completely devoid of antiallodynic effect; also recorded: no antiallodynic effect
[2]
  KiS2R/KiS1R (preference for S1R over S2R): ~10
  Ki: 2.7 ± 0.3 nM
[4]
  ratio Ki (nM) control/+ phenythoin: 2.6
  S1R functional profile in vitro (phenytoin assay): agonist profile for the S1R
[4]; [5]
  Ki: 1.2 nM
[4]; [6]
  Ki: 3.2 nM

## c1ccc(CCN2CCC3(CC2)CN(CCc2ccccc2)C3)cc1 [4c, 2,7-Diphenethyl-2,7-diazaspiro[3.5]nonane]
[1]
  Ki: 22 ± 2.5 nM
[2]
  KiS2R/KiS1R (preference for S1R over S2R): 6.3
  Ki: 3.5 ± 0.3 nM

## c1ccc(CCCN2CC3(CCN(c4ccccc4)CC3)C2)cc1 [4d, 7-Phenyl-2-(3-phenylpropyl)-2,7-diazaspiro[3.5]nonane]
[1]
  Ki: 51 ± 5 nM
[2]
  KiS2R/KiS1R (preference for S1R over S2R): 1.5
  Ki: 34 ± 7.7 nM

## c1ccc(CCCN2CC3(CCN(Cc4ccccc4)CC3)C2)cc1 [4e, 7-Benzyl-2-(3-phenylpropyl)-2,7-diazaspiro[3.5]nonane]
[1]
  Ki: 31 ± 5.4 nM
[2]
  KiS2R/KiS1R (preference for S1R over S2R): 4.3
  Ki: 7.2 ± 0.5 nM

## c1ccc(CCCN2CC3(CCN(CCc4ccccc4)CC3)C2)cc1 [4f, 7-Phenethyl-2-(3-phenylpropyl)-2,7-diazaspiro[3.5]nonane]
[1]
  Ki: 149 ± 27 nM
[2]
  KiS2R/KiS1R (preference for S1R over S2R): 1.2
  Ki: 126 ± 22 nM

## O=C(c1ccccc1)N1CCC2(CC1)CN(CCc1ccccc1)C2 [5a, (2-Phenethyl-2,7-diazaspiro[3.5]nonan-7-yl)(phenyl)methanone]
[1]
  Ki: 255 ± 62 nM
[2]
  KiS2R/KiS1R (preference for S1R over S2R): 6.8
  Ki: 37 ± 9.6 nM

## O=C(Cc1ccccc1)N1CCC2(CC1)CN(CCc1ccccc1)C2 [5b, 1-(2-Phenethyl-2,7-diazaspiro[3.5]nonan-7-yl)-2-phenylethan-1-one]
[1]
  Ki: 102 ± 26 nM
[3]
  antiallodynic effect when associated with the S1R agonist PRE-084: abolish the antiallodynic effect; also recorded: completely reversed their antiallodynic action
  S1R functional profile in vivo: S1R antagonistic in vivo effect
  antiallodynic effect, compound administered alone: mimicked the effect of the known S1R antagonist
  dose reaching full reversal of mechanical hypersensitivity (maximum antiallodynic effect): 20 mg/kg
[2]
  KiS2R/KiS1R (preference for S1R over S2R): 7.8
  Ki: 13 ± 2.5 nM
[4]
  ratio Ki (nM) control/+ phenythoin: 0.9
  S1R functional profile in vitro (phenytoin assay): antagonists for the S1R
[4]; [5]
  Ki: 14 nM
[4]; [6]
  Ki: 12 nM

## c1ccc(CN2CCCC3CN(c4ccccc4)CC32)cc1 (stereo not drawn) [8a, 1-Benzyl-6-phenyloctahydro-1H-pyrrolo[3,4-b]pyridine]
[1]
  Ki: 148 ± 29 nM
[2]
  KiS2R/KiS1R (preference for S1R over S2R): 0.6
  Ki: 254 ± 32 nM

## c1ccc(CCN2CCCC3CN(c4ccccc4)CC32)cc1 (stereo not drawn) [8b, 1-Phenethyl-6-phenyloctahydro-1H-pyrrolo[3,4-b]pyridine]
[1]
  Ki: 279 ± 83 nM
[2]
  KiS2R/KiS1R (preference for S1R over S2R): 0.6
  Ki: 505 ± 88 nM

## c1ccc(CCN2CCCC3CN(Cc4ccccc4)CC32)cc1 (stereo not drawn) [8c, 6-Benzyl-1-phenethyloctahydro-1H-pyrrolo[3,4-b]pyridine]
[1]
  Ki: 126 ± 19 nM
[2]
  Ki: 19 ± 2.6 nM

## c1ccc(CCN2CC3CCCN(CCc4ccccc4)C3C2)cc1 (stereo not drawn) [8d, 1,6-Diphenethyloctahydro-1H-pyrrolo[3,4-b]pyridine]
[1]
  Ki: 114 ± 15 nM
[2]
  KiS2R/KiS1R (preference for S1R over S2R): 0.07
  Ki: 1730 ± 403 nM

## c1ccc(CCCN2CCCC3CN(c4ccccc4)CC32)cc1 (stereo not drawn) [8e, 6-Phenyl-1-(3-phenylpropyl)octahydro-1H-pyrrolo[3,4-b]pyridine]
[1]
  Ki: 91 ± 5.8 nM
[2]
  KiS2R/KiS1R (preference for S1R over S2R): 0.8
  Ki: 108 ± 31 nM

## c1ccc(CCCN2CCCC3CN(Cc4ccccc4)CC32)cc1 (stereo not drawn) [8f, 6-Benzyl-1-(3-phenylpropyl)octahydro-1H-pyrrolo[3,4-b]pyridine]
[1]
  Ki: 165 ± 36 nM
[3]
  antiallodynic effect when associated with the S1R agonist PRE-084: abolish the antiallodynic effect; also recorded: completely reversed their antiallodynic action
  S1R functional profile in vivo: S1R antagonistic in vivo effect
  antiallodynic effect, compound administered alone: mimicked the effect of the known S1R antagonist
  dose reaching full reversal of mechanical hypersensitivity (maximum antiallodynic effect): 20 mg/kg
[2]
  KiS2R/KiS1R (preference for S1R over S2R): 16.5
  Ki: 10 ± 1.6 nM
[4]
  ratio Ki (nM) control/+ phenythoin: 0.8
  S1R functional profile in vitro (phenytoin assay): antagonists for the S1R
[4]; [5]
  Ki: 12 nM
[4]; [6]
  Ki: 9.6 nM

## c1ccc(CCCN2CCCC3CN(CCc4ccccc4)CC32)cc1 (stereo not drawn) [8g, 6-Phenethyl-1-(3-phenylpropyl)octahydro-1H-pyrrolo[3,4-b]pyridine]
[1]
  Ki: 1030 ± 200 nM
[2]
  KiS2R/KiS1R (preference for S1R over S2R): 1.4
  Ki: 710 ± 150 nM

## CN1CCN(CCc2ccc(Cl)c(Cl)c2)CC1.Cl.Cl [BD-1063, 1-[2-(3,4-dichlorophenyl)ethyl]-4-methylpiperazine dihydrochloride, reference compound]
[3]
  antiallodynic effect when associated with the S1R agonist PRE-084: abolish the antiallodynic effect
  antiallodynic effect, compound administered alone: full and dose-dependent reduction of mechanical hypersensitivity
  dose reaching full reversal of mechanical hypersensitivity (maximum antiallodynic effect): 40 mg/kg
[4]
  ratio Ki (nM) control/+ phenythoin: 0.7
[4]; [5]
  Ki: 10 nM
[4]; [6]
  Ki: 6.7 nM

## Cl.O=C(OCCN1CCOCC1)C1(c2ccccc2)CCCCC1 [PRE-084, 2-(4-morpholinethyl)-1-phenyl cyclohexane carboxylate hydrochloride, reference compound]
[3]
  antiallodynic effect, compound administered alone: did not modify the response latency

## C=CCN1CC[C@]2(C)c3cc(O)ccc3C[C@H]1[C@H]2C [SKF-10,047, reference compound]
[4]
  ratio Ki (nM) control/+ phenythoin: 5.8
  S1R functional profile in vitro (phenytoin assay): agonist profile for the S1R
[4]; [5]
  Ki: 17 nM
[4]; [6]
  Ki: 99 nM
